Drawing on the Kinase Knowledgebase extract (Sharma et al. 2016), this text covers IC50 for 40 molecules.

Usually IC50 stands for the concentration needed to halve the response being measured. A lower IC50 goes with inhibition by little substance.

This assay addresses PIK3CA (human) (UniProt P42336). In words: Inhibition of PIK3CA Kinase Activity.

Sequence of PIK3CA (human) (P42336 whole entry, looked up): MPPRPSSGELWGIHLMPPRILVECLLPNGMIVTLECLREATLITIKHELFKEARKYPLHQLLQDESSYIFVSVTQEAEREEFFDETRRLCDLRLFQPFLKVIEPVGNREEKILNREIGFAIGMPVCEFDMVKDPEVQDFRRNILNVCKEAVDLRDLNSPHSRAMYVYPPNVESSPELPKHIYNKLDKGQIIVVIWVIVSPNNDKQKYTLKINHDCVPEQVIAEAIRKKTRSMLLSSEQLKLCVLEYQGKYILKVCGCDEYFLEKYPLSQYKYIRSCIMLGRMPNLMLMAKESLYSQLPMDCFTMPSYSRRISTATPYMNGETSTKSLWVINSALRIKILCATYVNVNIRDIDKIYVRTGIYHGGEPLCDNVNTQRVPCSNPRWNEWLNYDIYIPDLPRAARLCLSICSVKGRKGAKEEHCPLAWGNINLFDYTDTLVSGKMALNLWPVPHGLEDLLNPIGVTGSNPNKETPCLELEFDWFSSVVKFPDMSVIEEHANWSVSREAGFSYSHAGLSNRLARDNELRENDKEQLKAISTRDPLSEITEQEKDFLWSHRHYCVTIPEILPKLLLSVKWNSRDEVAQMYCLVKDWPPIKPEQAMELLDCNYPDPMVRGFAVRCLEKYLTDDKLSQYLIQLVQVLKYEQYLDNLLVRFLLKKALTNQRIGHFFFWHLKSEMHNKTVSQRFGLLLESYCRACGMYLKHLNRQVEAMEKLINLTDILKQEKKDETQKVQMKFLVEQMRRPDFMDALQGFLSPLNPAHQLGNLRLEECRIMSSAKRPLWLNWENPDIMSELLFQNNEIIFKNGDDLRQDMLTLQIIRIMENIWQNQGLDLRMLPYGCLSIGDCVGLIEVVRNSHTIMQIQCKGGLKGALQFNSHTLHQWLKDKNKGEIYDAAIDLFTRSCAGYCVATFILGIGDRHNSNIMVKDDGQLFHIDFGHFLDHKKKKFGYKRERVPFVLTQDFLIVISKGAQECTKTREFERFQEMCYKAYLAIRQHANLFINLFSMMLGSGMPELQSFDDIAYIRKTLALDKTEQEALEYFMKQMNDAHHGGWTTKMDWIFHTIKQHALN

`Nc1ccc(-c2nc(N3CCOCC3)nc3c2ncn3Cc2cccc([N+](=O)[O-])c2)cn1` registered a half-inhibitory concentration (IC50) of less than 1000 nM.
`Oc1cccc(-c2nc(N3CCOCC3)nc3[nH]c(-c4cccs4)nc23)c1` gave a half-maximal inhibitory concentration (IC50) of less than 1000 nM.
Take `COCC(C)n1cnc2c(-c3cnc(N)nc3OC)nc(N3CCOCC3)nc21` (stereo not given): the IC50 was less than 1000 nM.
As to `Oc1cccc(-c2nc(N3CCOCC3)nc3c2ncn3Cc2ccccc2)c1`, the IC50 was less than 1000 nM.
The figure for `Oc1cccc(-c2nc(N3CCOCC3)nc3c2ncn3CC2CC2)c1` is less than 1000 nM; for `CCN(CC)CCn1cnc2c(-c3cccc(O)c3)nc(N3CCOCC3)nc21` it is less than 1000 nM; for `COCC(C)n1cnc2c(-c3cnc(N)nc3C)nc(N3CCOCC3)nc21` (stereo not given) it is less than 1000 nM.
Under `CC(COC(C)(C)C)n1cnc2c(-c3cnc(N)nc3)nc(N3CCOCC3)nc21` (stereo not given) stands less than 1000 nM; under `CS(=O)(=O)N1CCN(CCn2cnc3c(-c4cccc(O)c4)nc(N4CCOCC4)nc32)CC1`, less than 1000 nM; under `CCSc1nc2c(-c3cccc(O)c3)nc(N3CCOCC3)nc2n1C(C)CC` (stereo not given), less than 1000 nM.
Molecule `OCc1cccc(-c2nc(N3CCOCC3)nc3c2ncn3Cc2ccccc2)c1` registered an IC50 of less than 1000 nM.
Under `CCC(C)n1c(N(C)C)nc2c(-c3cccc(O)c3)nc(N3CCOCC3)nc21` (stereo not given) stands less than 1000 nM.
The figure for `CC(c1ccccc1)n1cnc2c(-c3cccc(O)c3)nc(N3CCOCC3)nc21` (stereo not given) is less than 1000 nM.
The figure for `N#CCn1cnc2c(-c3cccc4[nH]ccc34)nc(N3CCOCC3)nc21` is less than 1000 nM; for `C#CCn1cnc2c(-c3cccc(O)c3)nc(N3CCOCC3)nc21` it is less than 1000 nM; for `O=C(Cn1cnc2c(-c3cccc(O)c3)nc(N3CCOCC3)nc21)N1CCCC1` it is less than 1000 nM.
The molecule `CCC(C)n1c(C)nc2c(-c3cccc(O)c3)nc(N3CCOCC3)nc21` (stereo not given) came in with an IC50 of less than 1000 nM.
Under `CCC(C)n1cnc2c(-c3cnc(N)nc3)nc(N3CCOC[C@@H]3C)nc21` (stereo not given in full) stands less than 1000 nM; under `O=C(Cc1cccnc1)N1CCC(n2cnc3c(-c4cccc5[nH]ccc45)nc(N4CCOCC4)nc32)CC1`, less than 1000 nM.
Under `CCC(CC)n1cnc2c(-c3cnc(N)nc3)nc(N3CCOCC3)nc21` stands less than 1000 nM; under `CCC(C)n1c(SC)nc2c(-c3cccc(O)c3)nc(N3CCOCC3)nc21` (stereo not given), less than 1000 nM; under `CCCC(=O)N1CCC(n2cnc3c(-c4cccc5[nH]ccc45)nc(N4CCOCC4)nc32)CC1`, less than 1000 nM.
`CC(C1CC1)n1cnc2c(-c3cccc4[nH]ccc34)nc(N3CCOCC3)nc21` (stereo not given) had a half-inhibitory concentration (IC50) of less than 1000 nM.
The figure for `O=C(Cn1cnc2c(-c3cccc(O)c3)nc(N3CCOCC3)nc21)N1CCOCC1` is less than 1000 nM; for `CC(C)NC(=O)Cn1cnc2c(-c3cccc(O)c3)nc(N3CCOCC3)nc21` it is less than 1000 nM.
In the case of `Oc1cccc(-c2nc(N3CCOCC3)nc3c2ncn3C2CCCCO2)c1` (stereo not given), the half-maximal inhibitory concentration (IC50) was less than 1000 nM.
With `O=C(Nc1ccc(Cl)cc1)N1CCC(n2cnc3c(-c4cccc5[nH]ccc45)nc(N4CCOCC4)nc32)CC1`, the IC50 was less than 1000 nM.
The figure for `c1cc(-c2nc(N3CCOCC3)nc3c2ncn3CC2CC2)c2cc[nH]c2c1` is less than 1000 nM; for `O=C(CCN1CCCCC1)N1CCC(n2cnc3c(-c4cccc5[nH]ccc45)nc(N4CCOCC4)nc32)CC1` it is less than 1000 nM.
As for `O=C(Cn1cnc2c(-c3cccc(O)c3)nc(N3CCOCC3)nc21)Nc1ccccc1`, the half-inhibitory concentration (IC50) is less than 1000 nM.
The figure for `CC(C)(C)OC(=O)N1CCC(n2cnc3c(-c4cnc(N)nc4)nc(N4CCOCC4)nc32)CC1` is less than 1000 nM.
Under `CC(C)C(C)n1cnc2c(-c3cccc4[nH]ccc34)nc(N3CCOCC3)nc21` (stereo not given) stands less than 1000 nM; under `Cc1cccc(-n2cnc3c(-c4cnc(N)nc4)nc(N4CCOCC4)nc32)c1`, less than 1000 nM.
`CS(=O)(=O)Nc1ccc(Cn2cnc3c(-c4cccc(O)c4)nc(N4CCOCC4)nc32)cc1`: the concentration for half-maximal inhibition (IC50) was less than 1000 nM.
In turn, `CCC(C)n1c(NCCOC)nc2c(-c3cccc(O)c3)nc(N3CCOCC3)nc21` (stereo not given) had an IC50 of less than 1000 nM.
`COCC(C)n1cnc2c(-c3cccc4[nH]ccc34)nc(N3CCOCC3)nc21` (stereo not given) displayed an IC50 of less than 1000 nM.
In turn, `O=[N+]([O-])c1ccc(Cn2cnc3c(-c4cccc(O)c4)nc(N4CCOCC4)nc32)cc1` yielded an IC50 of less than 1000 nM.
The figure for `CC(C)(C)OC(=O)N1CCC(n2cnc3c(-c4cccc5[nH]ccc45)nc(N4CCOCC4)nc32)C1` (stereo not given) is less than 1000 nM.
Under `CC1CCC(n2cnc3c(-c4cnc(N)nc4)nc(N4CCOCC4)nc32)CC1` (stereo not given) stands less than 1000 nM; under `O=[N+]([O-])c1cccc(Cn2cnc3c(-c4cccc(O)c4)nc(N4CCOCC4)nc32)c1`, less than 1000 nM.
